pEC50: −log10 of the molar value. Where two headings read alike, the source gives them in different places.
How the values were obtained:
Type in all cases: cell-based
[1] = tested on: HCV 2a; assay: HCV 2a replicon assay (similar to the 1b replicon assay); settings: Hepatitis C virus; cell marked (HCV genotype 2a replicon); read-out: Inhibition of HCV genotype 2a replicon
Method: (§1) Compounds of the invention can inhibit multiple genotypes of HCV selected but not limited to 1a, 1b, 2a, 3a, and 4a. The EC50s are measured in the corresponding replicon assays that are similar to HCV 1b replicon assay as described above.
(§2) The biological activity against HCV 1b, 1a, or 2a is indicated as being *, **, ***, or ****, which corresponds to EC50 ranges of EC50>1000 nM, 100 nM<EC50≦1000 nM, 10 nM<EC50≦100 nM, or EC50≦10 nM, respectively. The biological activity against HCV NS5B C316Y or S365A mutant is indicated as being †, ††, or \\\, which corresponds to EC50 ranges of EC50>1000 nM, 200 nM<EC50≦1000 nM, […], respectively.

[2] = tested on: HCV 1b replication (bicistronic genotype 1b replicon in Huh 7 cells); assay: HCV 1b replicon assay (1b_Huh-Luc/Neo-ET cell line, luciferase readout); settings: Hepatitis C virus, Huh-7
Method: Biological activity of the compounds of the invention was determined using an HCV replicon assay. The 1b_Huh-Luc/Neo-ET cell line persistently expressing a bicistronic genotype 1b replicon in Huh 7 cells was obtained from ReBLikon GMBH. This cell line was used to test compound inhibition using luciferase enzyme activity readout as a measurement of compound inhibition of replicon levels.
On Day 1 (the day after plating), each compound was added in triplicate to the cells. Plates were incubated for 72 hours prior to running the luciferase assay. Enzyme activity was measured using a Bright-Glo Kit (cat. number E2620) manufactured by Promega Corporation. The following equation was used to generate a percent control value for each compound. % Control=(Average Compound Value/Average Control)*100
The EC50 value was determined using GraphPad Prism and the following equation: Y=Bottom+(Top-Bottom)/(1+10^((Log IC50−X)*HillSlope))
EC50 values of compounds were repeated several times in the replicon assay.

[3] = target: T1, HCV NS5B C316Y mutant (Hepatitis C virus genotype 1b, UniProt Q9WMX2, C2735Y); assay: Activity against HCV NS5B C316Y mutant; settings: for pEC50: read-out: Inhibiton of HCV NS5B C316Y mutant
T1 construct: HCV NS5B C316Y or S365A mutant as indicated; expressed in transfected cells
T1 sequence (Q9WMX2 2420-3010 C2735Y): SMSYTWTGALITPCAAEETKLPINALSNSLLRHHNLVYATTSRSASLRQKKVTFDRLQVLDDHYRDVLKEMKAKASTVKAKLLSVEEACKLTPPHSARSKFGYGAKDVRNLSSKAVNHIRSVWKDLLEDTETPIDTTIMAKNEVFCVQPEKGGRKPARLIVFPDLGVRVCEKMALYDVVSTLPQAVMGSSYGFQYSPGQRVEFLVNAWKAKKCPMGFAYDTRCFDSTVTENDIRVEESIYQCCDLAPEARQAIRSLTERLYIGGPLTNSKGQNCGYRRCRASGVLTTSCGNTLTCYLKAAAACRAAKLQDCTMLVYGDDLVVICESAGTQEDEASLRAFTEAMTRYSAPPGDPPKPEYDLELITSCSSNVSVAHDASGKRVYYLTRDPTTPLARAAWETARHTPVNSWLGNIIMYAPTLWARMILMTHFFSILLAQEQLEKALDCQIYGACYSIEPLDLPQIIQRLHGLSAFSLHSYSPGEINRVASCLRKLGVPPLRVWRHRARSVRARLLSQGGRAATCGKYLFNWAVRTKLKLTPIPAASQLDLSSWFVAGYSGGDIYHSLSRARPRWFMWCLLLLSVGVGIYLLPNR
Method: as §2

[4] = target: T2, HCV NS5B S365A mutant (Hepatitis C virus genotype 1b, UniProt Q9WMX2, S2784A); assay: Activity against HCV NS5B S365A mutant; settings: for pEC50: read-out: Inhibiton of HCV NS5B S365A mutant
T2 construct: HCV NS5B C316Y or S365A mutant as indicated; expressed in transfected cells
T2 sequence (Q9WMX2 2420-3010 S2784A): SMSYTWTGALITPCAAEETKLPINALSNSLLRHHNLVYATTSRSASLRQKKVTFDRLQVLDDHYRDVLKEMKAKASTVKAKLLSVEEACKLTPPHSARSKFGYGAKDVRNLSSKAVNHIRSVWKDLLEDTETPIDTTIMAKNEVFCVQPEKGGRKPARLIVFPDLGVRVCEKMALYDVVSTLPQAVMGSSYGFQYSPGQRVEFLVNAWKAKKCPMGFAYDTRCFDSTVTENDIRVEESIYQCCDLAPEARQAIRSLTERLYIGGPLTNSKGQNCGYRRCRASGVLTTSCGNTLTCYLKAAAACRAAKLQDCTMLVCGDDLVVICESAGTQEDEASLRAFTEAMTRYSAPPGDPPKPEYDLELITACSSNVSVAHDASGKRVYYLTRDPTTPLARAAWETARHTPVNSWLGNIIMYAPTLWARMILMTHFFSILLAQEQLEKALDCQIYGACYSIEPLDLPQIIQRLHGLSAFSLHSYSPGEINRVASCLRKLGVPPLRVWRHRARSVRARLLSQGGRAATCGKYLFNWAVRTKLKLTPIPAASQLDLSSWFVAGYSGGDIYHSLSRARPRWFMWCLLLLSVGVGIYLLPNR
Method: as §2

[5] = tested on: HCV 1a; assay: HCV 1a replicon assay (similar to the 1b replicon assay); settings: Hepatitis C virus; cell marked (HCV genotype 1a replicon); read-out: Inhibition of HCV genotype 1a replicon
Method: as §1, §2

[6] = numeric EC50, genotype 1b replicon, read-out: Inhibition of HCV genotype 1b replicon (EC50)
[7] = 1b_Huh-Luc/Neo-ET cell line, 72 hours, luciferase readout, read-out: EC50, concentration effective to produce a half-maximal inhibition of HCV 1b replication
[8] = class symbols, genotype 1b replicon, read-out: Inhibition of HCV genotype 1b replicon

`CS(=O)(=O)N1CCCCc2cc3c(C(N)=O)c(-c4ccc(F)cc4)oc3cc21` [Compound B13] was tested. Which pEC50 [1] did it give?
Its pEC50 is under 6.00.

With `CNC(=O)c1c(-c2ccc(F)cc2)oc2cc3c(cc12)[C@H](C)CCCN3S(C)(=O)=O` (single isomer, unassigned) [Compound B15] as the molecule, how does the pEC50 [2, 6] read?
Its pEC50 is 8.26.

What about the “Inhibiton of HCV NS5B C316Y mutant” value [3] of the same molecule?
Its value is “†††”.

What about the “Inhibiton of HCV NS5B S365A mutant” value [4] of the same molecule?
Its value is “†††”.

How did the pEC50 [1] turn out when `CNC(=O)c1c(-c2ccc(F)cc2)oc2cc3c(cc12)[C@@H](C)OCCN3S(C)(=O)=O` [Compound B44] was run?
Its pEC50 is 6.00 to 7.00.

With `CS(=O)(=O)N1CCCCc2cc3c(C(=O)NC4CC4)c(-c4ccc(F)cc4)oc3cc21` [Compound B41] as the molecule, how does the pEC50 [1] read?
The pEC50 was under 6.00.

With `CNC(=O)c1c(-c2ccc(F)cc2)oc2cc3c(cc12)C(C)N(CCO)CCN3S(C)(=O)=O` (stereo not shown) [Compound B145] as the molecule, how does the pEC50 [4] read?
Its pEC50 is 6.00 to 6.70.

With `CNC(=O)c1c(-c2ccc(F)cc2)oc2cc3c(cc12)[C@H](C)OCCN3S(C)(=O)=O` [Compound B45] as the molecule, how does the pEC50 [2, 6] read?
The pEC50 was 8.52.

What about the “Inhibiton of HCV NS5B C316Y mutant” value [3] of the same molecule?
Its value is “†††”.

And the “Inhibiton of HCV NS5B S365A mutant” value [4]?
The value was “†††”.

How did the pEC50 [1] turn out when `CNC(=O)c1c(-c2ccc(F)cc2)oc2cc3c(cc12)C=CCCN3S(C)(=O)=O` [Compound B12] was run?
The pEC50 was 6.00 to 7.00.

Which results are given for `CNC(=O)c1c(-c2ccc(F)cc2)oc2cc3c(cc12)[C@H](C)OC1(CC1)CN3S(C)(=O)=O` (single isomer, unassigned) [Compound B193]?
pEC50 [3]: 6.00 to 6.70; pEC50 [4]: 6.00 to 6.70

With `CNC(=O)c1c(-c2ccc(Oc3ccc(F)cc3)cc2)oc2cc3c(cc12)[C@H](C)OC(C)(C)CN3S(C)(=O)=O` (single isomer, unassigned) [Compound B176] as the molecule, how does the pEC50 [3] read?
Its pEC50 is 6.00 to 6.70.

What about the pEC50 [4] of the same molecule?
Its pEC50 is 6.00 to 6.70.

With `CNC(=O)c1c(-c2ccc(F)cc2)oc2cc3c(cc12)[C@H](C)OC(C)(C)CN3S(C)(=O)=O` (single isomer, unassigned) [Compound B184] as the molecule, how does the pEC50 [3] read?
Its pEC50 is under 6.00.

And the pEC50 [4]?
The pEC50 was 6.00 to 6.70.

With `C=C1CCCCN(S(C)(=O)=O)c2cc3oc(-c4ccc(F)cc4)c(C(=O)NC)c3cc21` [Compound B75] as the molecule, how does the pEC50 [1] read?
Its pEC50 is 6.00 to 7.00.

How did the pEC50 [1] turn out when `C=C1CCCN(S(C)(=O)=O)c2cc3nc(-c4ccc(F)cc4)c(C(=O)NC)n3cc21` [Compound B61] was run?
Its pEC50 is under 6.00.

With `CN(C)C(=O)c1c(-c2ccc(F)cc2)oc2cc3c(cc12)CCCCN3S(C)(=O)=O` [Compound B14] as the molecule, how does the pEC50 [1] read?
The pEC50 was under 6.00.

How did the pEC50 [1] turn out when `CN(C)CCNC(=O)c1c(-c2ccc(F)cc2)oc2cc3c(cc12)CCCCN3S(C)(=O)=O` [Compound B42] was run?
Its pEC50 is under 6.00.

With `CS(=O)(=O)N1CCCCc2cc3c(-c4ncc[nH]4)c(-c4ccc(F)cc4)oc3cc21` [Compound B67] as the molecule, how does the pEC50 [4] read?
The pEC50 was 6.00 to 6.70.

With `CS(=O)(=O)N1CCCCc2cc3c(C(=O)NCC#N)c(-c4ccc(F)cc4)oc3cc21` [Compound B43] as the molecule, how does the pEC50 [1] read?
Its pEC50 is under 6.00.

With `CC1OCCN(S(C)(=O)=O)c2cc3oc(-c4ccc(F)cc4)c(-c4ncc[nH]4)c3cc21` (stereo not shown) [Compound B197] as the molecule, how does the pEC50 [4] read?
Its pEC50 is 6.00 to 6.70.

How did the pEC50 [5] turn out when `CNC(=O)c1c(-c2ccc(F)cc2)oc2cc3c(cc12)/C=C\CCCN3S(C)(=O)=O` [Compound B114] was run?
Its pEC50 is 6.00 to 7.00.

`CNC(=O)c1c(-c2ccc(Oc3ccc(F)cc3)cc2)oc2cc3c(cc12)[C@H](C)OC1(CC1)CN3S(C)(=O)=O` (single isomer, unassigned) [Compound B187] was tested. Which pEC50 [3] did it give?
The pEC50 was under 6.00.

And the pEC50 [4]?
Its pEC50 is under 6.00.

`CC1c2cc3c(-c4ncc[nH]4)c(-c4ccc(F)cc4)oc3cc2N(S(C)(=O)=O)CCN1C` (stereo not shown) [Compound B171] was tested. Which pEC50 [4] did it give?
Its pEC50 is 6.00 to 6.70.

With `CNC(=O)c1c(-c2ccc(F)cc2)oc2cc3c(cc12)[C@H](C)N(C)C(=O)CN3S(C)(=O)=O` (single isomer, unassigned) [Compound B179] as the molecule, how does the pEC50 [4] read?
The pEC50 was 6.00 to 6.70.

How did the pEC50 [2, 7] turn out when `CNC(=O)c1c(-c2ccc(F)cc2)oc2cc3c(cc12)[C@H](C)O[C@H](COC(=O)CN(C)C)CN3S(C)(=O)=O` [Compound B252] was run?
The pEC50 was at least 8.00.

What about the pEC50 [2, 8] of the same molecule?
The pEC50 was over 8.00.

With `CNC(=O)c1c(-c2ccc(F)cc2)oc2cc3c(cc12)[C@H](C)O[C@H](COC(=O)[C@@H](N)Cc1cnc[nH]1)CN3S(C)(=O)=O` [Compound B277] as the molecule, how does the pEC50 [2, 7] read?
Its pEC50 is at least 8.00.

And the pEC50 [2, 8]?
The pEC50 was over 8.00.

How did the pEC50 [1] turn out when `CNC(=O)c1c(-c2ccc(F)cc2)nc2cc3c(cn12)C(C)=CCCN3S(C)(=O)=O` [Compound B62] was run?
Its pEC50 is under 6.00.

`CN/C(=N\OC)c1c(-c2ccc(F)cc2)oc2cc3c(cc12)[C@H](C)O[C@H](CS(C)(=O)=O)CN3S(C)(=O)=O` [Compound B284] was tested. Which pEC50 [2, 8] did it give?
Its pEC50 is 6.00 to 7.00.

What does the source list for `CNC(=O)c1c(-c2ccc(F)cc2)oc2cc3c(cc12)[C@H](C)O[C@H](COC(=O)C(C)(C)C)CN3S(C)(=O)=O` [Compound B261]?
pEC50 [2, 7]: ≥ 8.00; pEC50 [2, 8]: > 8.00

How did the pEC50 [2, 7] turn out when `CNC(=O)c1c(-c2ccc(F)cc2F)oc2cc3c(cc12)C(C)CCCN3S(C)(=O)=O` (stereo not shown) [Compound B35] was run?
Its pEC50 is at least 8.00.

What about the pEC50 [2, 8] of the same molecule?
Its pEC50 is over 8.00.

How did the pEC50 [2, 7] turn out when `C=C1CCCN(S(C)(=O)=O)c2cc3oc(-c4ccc(F)cc4F)c(C(=O)NC)c3cc21` [Compound B29] was run?
The pEC50 was 7.00 to 8.00.

What about the pEC50 [2, 6] of the same molecule?
The pEC50 was 7.25.

What does the source list for `CNC(=O)c1c(-c2ccc(F)cc2)oc2cc3c(cc12)[C@H](C)O[C@H](COC(=O)[C@@H](N)CO)CN3S(C)(=O)=O` [Compound B281]?
pEC50 [2, 7]: ≥ 8.00; pEC50 [2, 8]: > 8.00

Which results are given for `CONC(=O)c1c(-c2ccc(F)cc2)oc2cc3c(cc12)CCCCN3S(C)(=O)=O` [Compound B18]?
pEC50 [2, 7]: 7.00 to 8.00; pEC50 [2, 8]: 7.00 to 8.00

`CNC(=O)c1c(-c2ccc(F)cc2)oc2cc3c(cc12)[C@H](C)O[C@H](COC(=O)[C@@H](N)CC(C)C)CN3S(C)(=O)=O` [Compound B271] was tested. Which pEC50 [2, 7] did it give?
Its pEC50 is at least 8.00.

What about the pEC50 [2, 8] of the same molecule?
Its pEC50 is over 8.00.

With `CNC(=O)c1c(-c2ccc(F)cc2)oc2cc3c(cc12)[C@H](C)O[C@H](COC(=O)COCCOCCOCCOCCOC)CN3S(C)(=O)=O` [Compound B259] as the molecule, how does the pEC50 [2, 7] read?
The pEC50 was at least 8.00.

What about the pEC50 [2, 8] of the same molecule?
The pEC50 was over 8.00.

From patent publication US9085587B2, “Inhibitors of hepatitis C virus” (priority 2010, dated 2015)
